For 8 compounds, IC50 and melting point results are on record in US7517894B2, “VEGFR-2 and VEGFR-3 inhibitory anthranilamide pyridines” (Bayer Schering Pharma AG, priority 2003, dated 2009).

Data set [1] concerns the target T1, human cytochrome P 450 isoenzyme (3A4) (Homo sapiens, UniProt P08684).
T1 construct: host or cells: baculovirus/insect cells
Briefly: Cytochrome P450 inhibition (Crespi et al.). To be noted: baculovirus/insect cell-expressed human isoenzyme 3A4. It is filed as in vitro ADME. As to the method:
The cytochrome P450 inhibition was performed according to the publication of Crespi et al. (Anal. Biochem., 248, 188-190 (1997)) with use of baculovirus/insect cell-expressed, human cytochrome P 450 isoenzyme (3A4).

The next data set addresses VEGFR II (KDR) (Homo sapiens, UniProt P35968). Briefly: Inhibition of the KDR kinase activity (33P-ATP, poly-(Glu4Tyr) phosphocellulose filter assay). The class given is biochemical. To be noted: 10 minutes at room temperature; phosphate incorporation into poly-(Glu4Tyr). The procedure: • Stock solution A: 3 mmol of ATP in water, pH 7.0 (−70° C.) • Stock solution B: g-33P-ATP 1 mCi/100 μl • Stock solution C: poly-(Glu4Tyr) 10 mg/ml in water Solution for Dilutions • Substrate solvent: 10 mmol of DTT, 10 mmol of manganese chloride, 100 mmol of magnesium chloride • Enzyme solution: 120 mmol of tris/HCl, pH 7.5, 10 μM of sodium vanadium oxide Sample Application 1
In a microtiter plate (without protein binding) that tapers to a point, 10 μl of substrate mix (10 μl of volume of ATP stock solution A+25 μCi of g-33P-ATP (about 2.5 μl of stock solution B)+30 μl of poly-(Glu4Tyr) stock solution C+1.21 ml of substrate solvent), 10 μl of inhibitor solution (substances corresponding to the dilutions, 3% DMSO in substrate solvent as a control) and 10 μl of enzyme solution (11.25 μg of enzyme stock solution (KDR or FLT-1 kinase) are added at 4° C. in 1.25 ml of enzyme solution (dilute). It is thoroughly mixed and incubated for 10 minutes at room temperature. Then, 10 μl of stop solution (250 mmol of EDTA, pH 7.0) is added, mixed, and 10 μl of the solution is transferred to a P 81 phosphocellulose filter. Then, it is washed several times in 0.1 M phosphoric acid. The filter paper is dried, coated with Meltilex and measured in a microbeta counter.
The IC50 values are determined from the inhibitor concentration, which is necessary to inhibit the phosphate incorporation to 50% of the uninhibited incorporation after removal of the blank reading (EDTA-stopped reaction).

Each structure is given as a SMILES string.

T1 sequence (P08684 whole entry): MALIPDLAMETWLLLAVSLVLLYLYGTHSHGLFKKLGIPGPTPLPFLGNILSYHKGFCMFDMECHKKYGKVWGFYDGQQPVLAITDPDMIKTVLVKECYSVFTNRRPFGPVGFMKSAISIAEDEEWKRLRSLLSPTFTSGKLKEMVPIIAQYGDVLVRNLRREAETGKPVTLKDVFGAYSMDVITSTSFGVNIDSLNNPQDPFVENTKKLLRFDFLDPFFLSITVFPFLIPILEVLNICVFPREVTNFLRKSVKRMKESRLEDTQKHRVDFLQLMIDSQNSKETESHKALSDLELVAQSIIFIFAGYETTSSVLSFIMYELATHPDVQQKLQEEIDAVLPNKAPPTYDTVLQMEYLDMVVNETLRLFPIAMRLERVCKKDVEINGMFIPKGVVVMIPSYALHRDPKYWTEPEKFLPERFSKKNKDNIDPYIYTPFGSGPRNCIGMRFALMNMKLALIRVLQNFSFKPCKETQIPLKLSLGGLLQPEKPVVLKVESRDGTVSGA
Chain of VEGFR II (KDR) (P35968 20-1356): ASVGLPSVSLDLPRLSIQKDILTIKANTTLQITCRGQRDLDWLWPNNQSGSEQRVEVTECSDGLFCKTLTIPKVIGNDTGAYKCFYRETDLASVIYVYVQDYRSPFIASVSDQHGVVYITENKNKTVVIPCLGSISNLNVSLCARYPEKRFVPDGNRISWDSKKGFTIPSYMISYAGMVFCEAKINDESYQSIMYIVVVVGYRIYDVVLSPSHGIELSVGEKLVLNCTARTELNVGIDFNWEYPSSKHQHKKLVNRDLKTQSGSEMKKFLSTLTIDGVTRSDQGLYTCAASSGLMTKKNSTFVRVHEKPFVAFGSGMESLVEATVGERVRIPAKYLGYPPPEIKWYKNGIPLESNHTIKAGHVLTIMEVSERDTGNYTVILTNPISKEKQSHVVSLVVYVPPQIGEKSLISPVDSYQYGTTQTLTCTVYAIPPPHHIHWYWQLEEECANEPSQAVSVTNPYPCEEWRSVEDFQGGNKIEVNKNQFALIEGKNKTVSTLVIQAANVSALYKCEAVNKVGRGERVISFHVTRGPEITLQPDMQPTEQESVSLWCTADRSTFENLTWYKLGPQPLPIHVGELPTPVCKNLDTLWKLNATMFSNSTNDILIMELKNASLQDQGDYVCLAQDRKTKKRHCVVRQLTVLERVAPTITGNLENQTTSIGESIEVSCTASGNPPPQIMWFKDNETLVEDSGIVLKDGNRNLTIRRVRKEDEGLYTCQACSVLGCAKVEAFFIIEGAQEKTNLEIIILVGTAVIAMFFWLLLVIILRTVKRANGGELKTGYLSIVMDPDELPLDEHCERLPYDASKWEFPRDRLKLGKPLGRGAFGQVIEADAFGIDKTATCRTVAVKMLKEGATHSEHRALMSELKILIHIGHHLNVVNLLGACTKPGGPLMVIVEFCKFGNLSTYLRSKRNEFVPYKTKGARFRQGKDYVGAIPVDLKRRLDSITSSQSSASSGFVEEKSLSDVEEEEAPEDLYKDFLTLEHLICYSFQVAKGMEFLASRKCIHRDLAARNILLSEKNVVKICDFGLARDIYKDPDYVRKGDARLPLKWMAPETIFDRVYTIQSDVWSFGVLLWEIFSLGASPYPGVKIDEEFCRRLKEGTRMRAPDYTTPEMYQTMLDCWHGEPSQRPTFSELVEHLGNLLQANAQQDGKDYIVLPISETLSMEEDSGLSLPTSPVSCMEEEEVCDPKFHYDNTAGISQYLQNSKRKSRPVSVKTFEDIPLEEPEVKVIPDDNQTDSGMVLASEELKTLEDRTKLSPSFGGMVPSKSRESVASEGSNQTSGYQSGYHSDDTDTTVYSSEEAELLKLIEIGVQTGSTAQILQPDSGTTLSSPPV

Consider `O=C(Nc1cc2ccccc2cn1)c1ccccc1NCc1ccnc(N2CCOCC2)c1` [Example 1.14], for which the half-maximal inhibitory concentration (IC50) is more than 30 µM in data set [1] and 0.052 µM on VEGFR II (KDR). With `Nc1cc(CNc2ccccc2C(=O)Nc2cc3ccccc3cn2)ccn1` [Example 2.1, 2-[(2-Amino-pyridin-4-ylmethyl)-amino]-N-isoquinolin-3-yl-benzamide], the melting point was determined as 202 °C. Still for that read-out and setting: then `Nc1cc(CNc2ccccc2C(=O)Nc2ccc3[nH]ncc3c2)ccn1` [Example 2.2, 2-[(2-Amino-pyridin-4-ylmethyl)-amino]-N-(1H-indazol-5-yl)-benzamide], with 200 °C. In the case of `CNC(=O)Nc1cc(CNc2ccccc2C(=O)Nc2cc3ccccc3cn2)ccn1` [Example 3.24], the results for the IC50 (in data set [1]; on VEGFR II (KDR)) were 14 µM and 0.012 µM, respectively. Regarding `CN(C)C(=O)Nc1cc(CNc2ccccc2C(=O)Nc2cc3ccccc3cn2)ccn1` [Example 3.30, 2-{[2-(3,3-Dimethyl-ureido)-pyridin-4-ylmethyl]-amino}-N-(3-isoquinolinyl)-benzamide], the values for the IC50 (in data set [1]; against VEGFR II (KDR)) were 5.5 µM and 0.01 µM, respectively. For `CCOC(=O)Nc1cc(CNc2ccccc2C(=O)Nc2ccc3cn[nH]c3c2)ccn1` [Example 6.22] the same measures were 10 µM and 0.024 µM. The compound `CC(=O)N(C)c1cc(CNc2ccccc2C(=O)Nc2cc3ccccc3cn2)ccn1` [Example 6.31, 2-{[2-(Acetyl-methyl-amino)-pyridin-4-ylmethyl]-amino}-N-isoquinolin-3-yl-benzamide] gave a melting point of 71 °C. Also, inhibition in data set [1] was half-maximal at 11 µM (IC50). The compound also gave an IC50 at VEGFR II (KDR) of 0.065 µM. In turn, `O=C(Nc1cccc(C(F)(F)F)c1)c1ccccc1NCc1ccnc(N2C(=O)COCC2=O)c1` [Example 9.1, 2-{[2-(3,5-Dioxo-morpholin-4-yl)-pyridin-4-ylmethyl]-amino}-N-(3-trifluoromethyl-phenyl)-benzamide] registered a melting point of 201.9 °C.
